Source: ChEMBL document CHEMBL1201862, “PubChem BioAssay data set” (2004)
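48-hour exposure; five concentrations; linearly interpolated endpoints. GI50 = concentration required for 50% inhibition of growth.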 Calls of active or inactive are those of the source. Rule as the data show it: active = GI50 up to about 1.1 µM and inactive = higher.

Legend:
Assay in all cases: inhibition of tumour cell growth, NCI panel, 48 h
[1] = tested on: HT-29
[2] = tested on: HL-60
[3] = tested on: LXFL 529
[4] = tested on: U-251
[5] = tested on: OVCAR-5
[6] = tested on: SF-268
[7] = tested on: NCI-H226
[8] = tested on: TK-10
[9] = tested on: SNB-19
[10] = tested on: DMS-273
[11] = tested on: EKVX
[12] = tested on: SF-295
[13] = tested on: KM-20L2
[14] = tested on: M14
[15] = tested on: MOLT-4
[16] = tested on: SNB-75
[17] = tested on: ACHN
[18] = tested on: A549
[19] = tested on: LOX IMVI
[20] = tested on: HCT-116
[21] = tested on: CAKI-1
[22] = tested on: SK-MEL-28
[23] = tested on: SF-539
[24] = tested on: KM12
[25] = tested on: DLD-1
[26] = tested on: SK-MEL-2
[27] = tested on: CCRF-CEM
[28] = tested on: UO-31
[29] = tested on: NCI-H522
[30] = tested on: UACC-257
[31] = tested on: SR
[32] = tested on: SN12C
[33] = tested on: HCC 2998
[34] = tested on: M19-MEL
[35] = tested on: HOP-62
[36] = tested on: K562
[37] = tested on: NCI-H23
[38] = tested on: UACC-62
[39] = tested on: OVCAR-4
[40] = tested on: HOP-18
[41] = tested on: SW-620
[42] = tested on: SK-OV-3
[43] = tested on: HCT-15
[44] = tested on: OVCAR-8
[45] = tested on: HOP-92
[46] = tested on: 786-0
[47] = tested on: COLO 205
[48] = tested on: Malme-3M
[49] = tested on: SK-MEL-5
[50] = tested on: Hs-578T
[51] = tested on: BT-549
[52] = tested on: NCI/ADR-RES
[53] = tested on: DU-145
[54] = tested on: MCF7
[55] = tested on: NCI-H460
[56] = tested on: DMS-114
[57] = tested on: XF498
[58] = tested on: PC-3
[59] = tested on: MDA-MB-231
[60] = tested on: T47D
[61] = tested on: SNB-78
[62] = tested on: MDA-MB-435
[63] = tested on: A498
[64] = tested on: OVCAR-3
[65] = tested on: RPMI-8226
[66] = tested on: RXF 393
[67] = tested on: IGROV-1

## [O-]c1c2cc(-[n+]3c(-c4ccccc4)cc(-c4ccccc4)cc3-c3ccccc3)cc1COCCOCCOCCOCCOC2
[1]
  GI50: 35.6 µM (inactive)
[2]
  GI50: 31.8 µM (inactive)
[3]
  GI50: 21.2 µM (inactive)
[4]
  GI50: 38.8 µM (inactive)
[5]
  GI50: > 100 µM (inactive)
[6]
  GI50: 29 µM (inactive)
[7]
  GI50: > 100 µM (inactive)
[8]
  GI50: 57.5 µM (inactive)
[9]
  GI50: 73.5 µM (inactive)
[10]
  GI50: 45.9 µM (inactive)
[11]
  GI50: 33.9 µM (inactive)
[12]
  GI50: 43.8 µM (inactive)
[13]
  GI50: 31.3 µM (inactive)
[14]
  GI50: 37.4 µM (inactive)
[15]
  GI50: 32.1 µM (inactive)
[16]
  GI50: 41.7 µM (inactive)
[17]
  GI50: > 100 µM (inactive)
[18]
  GI50: 60 µM (inactive)
[19]
  GI50: 43 µM (inactive)
[20]
  GI50: 32.8 µM (inactive)
[21]
  GI50: > 100 µM (inactive)
[22]
  GI50: 18 µM (inactive)
[23]
  GI50: 33 µM (inactive)
[24]
  GI50: 20.4 µM (inactive)
[25]
  GI50: 44 µM (inactive)
[26]
  GI50: 21.7 µM (inactive)
[27]
  GI50: 43.6 µM (inactive)
[28]
  GI50: 85.3 µM (inactive)
[29]
  GI50: 35.6 µM (inactive)
[30]
  GI50: 24 µM (inactive)
[31]
  GI50: 26.2 µM (inactive)
[32]
  GI50: 38.8 µM (inactive)
[33]
  GI50: 41.7 µM (inactive)
[34]
  GI50: 30.8 µM (inactive)
[35]
  GI50: 37 µM (inactive)
[36]
  GI50: 34 µM (inactive)
[37]
  GI50: 41.9 µM (inactive)
[38]
  GI50: 19.5 µM (inactive)
[39]
  GI50: 59.4 µM (inactive)
[40]
  GI50: 57.3 µM (inactive)
[41]
  GI50: 48.9 µM (inactive)
[42]
  GI50: 57.8 µM (inactive)
[43]
  GI50: 73.6 µM
[44]
  GI50: 31.5 µM (inactive)
[45]
  GI50: 26 µM (inactive)
[46]
  GI50: 54.5 µM (inactive)
[47]
  GI50: 18.7 µM (inactive)
[48]
  GI50: 34.2 µM (inactive)

## NCCSCC(N)C(=O)O (stereo not drawn)
[1]
  GI50: 39.5 µM (inactive)
[2]
  GI50: > 497 µM (inactive)
[49]
  GI50: > 63.7 µM (inactive)
[3]
  GI50: > 497 µM (inactive)
[4]
  GI50: > 497 µM (inactive)
[5]
  GI50: > 497 µM (inactive)
[6]
  GI50: > 497 µM (inactive)
[7]
  GI50: > 497 µM (inactive)
[8]
  GI50: > 497 µM (inactive)
[50]
  GI50: > 95.1 µM (inactive)
[9]
  GI50: > 497 µM (inactive)
[10]
  GI50: > 497 µM (inactive)
[51]
  GI50: > 100 µM (inactive)
[11]
  GI50: > 497 µM (inactive)
[12]
  GI50: > 497 µM (inactive)
[13]
  GI50: > 497 µM (inactive)
[14]
  GI50: > 497 µM (inactive)
[52]
  GI50: > 100 µM (inactive)
[15]
  GI50: > 497 µM (inactive)
[16]
  GI50: > 40.4 µM (inactive)
[17]
  GI50: 65.9 µM (inactive)
[18]
  GI50: 47.6 µM (inactive)
[19]
  GI50: > 497 µM (inactive)
[20]
  GI50: 39.7 µM (inactive)
[21]
  GI50: > 100 µM (inactive)
[53]
  GI50: > 90.6 µM (inactive)
[22]
  GI50: > 497 µM (inactive)
[54]
  GI50: 46.7 µM (inactive)
[55]
  GI50: 60.1 µM (inactive)
[23]
  GI50: > 497 µM (inactive)
[24]
  GI50: 38 µM (inactive)
[25]
  GI50: > 497 µM (inactive)
[56]
  GI50: > 497 µM (inactive)
[26]
  GI50: > 497 µM (inactive)
[57]
  GI50: > 497 µM (inactive)
[27]
  GI50: 29 µM (inactive)
[28]
  GI50: 85.5 µM (inactive)
[58]
  GI50: > 100 µM (inactive)
[29]
  GI50: > 63 µM (inactive)
[59]
  GI50: > 100 µM (inactive)
[30]
  GI50: > 497 µM (inactive)
[31]
  GI50: > 497 µM (inactive)
[32]
  GI50: > 497 µM (inactive)
[60]
  GI50: > 83 µM (inactive)
[61]
  GI50: > 497 µM (inactive)
[33]
  GI50: > 497 µM (inactive)
[34]
  GI50: > 497 µM (inactive)
[35]
  GI50: > 497 µM (inactive)
[36]
  GI50: 37.2 µM (inactive)
[37]
  GI50: > 497 µM (inactive)
[38]
  GI50: > 497 µM (inactive)
[39]
  GI50: > 497 µM (inactive)
[62]
  GI50: 51.2 µM (inactive)
[63]
  GI50: > 497 µM (inactive)
[41]
  GI50: 46.8 µM (inactive)
[42]
  GI50: > 497 µM (inactive)
[64]
  GI50: > 64.9 µM (inactive)
[43]
  GI50: > 87.5 µM
[44]
  GI50: > 497 µM (inactive)
[45]
  GI50: > 497 µM (inactive)
[46]
  GI50: 83.4 µM (inactive)
[65]
  GI50: 47.1 µM (inactive)
[47]
  GI50: > 75.9 µM (inactive)
[66]
  GI50: > 497 µM (inactive)
[67]
  GI50: > 87.5 µM (inactive)
[48]
  GI50: > 66.2 µM (inactive)

## CCOC(=O)CNC(SC)=C(C#N)C#N
[1]
  GI50: > 100 µM (inactive)
[2]
  GI50: > 100 µM (inactive)
[49]
  GI50: > 100 µM (inactive)
[3]
  GI50: > 100 µM (inactive)
[4]
  GI50: > 100 µM (inactive)
[5]
  GI50: > 100 µM (inactive)
[6]
  GI50: > 100 µM (inactive)
[7]
  GI50: > 100 µM (inactive)
[8]
  GI50: > 100 µM (inactive)
[9]
  GI50: > 100 µM (inactive)
[10]
  GI50: > 100 µM (inactive)
[11]
  GI50: > 100 µM (inactive)
[12]
  GI50: > 100 µM (inactive)
[13]
  GI50: > 100 µM (inactive)
[14]
  GI50: > 100 µM (inactive)
[15]
  GI50: > 100 µM (inactive)
[16]
  GI50: > 100 µM (inactive)
[18]
  GI50: > 100 µM (inactive)
[19]
  GI50: > 100 µM (inactive)
[20]
  GI50: > 100 µM (inactive)
[21]
  GI50: > 100 µM (inactive)
[55]
  GI50: > 100 µM (inactive)
[23]
  GI50: > 100 µM (inactive)
[24]
  GI50: > 100 µM (inactive)
[25]
  GI50: > 100 µM (inactive)
[56]
  GI50: > 100 µM (inactive)
[57]
  GI50: > 100 µM (inactive)
[27]
  GI50: > 100 µM (inactive)
[28]
  GI50: 36.7 µM (inactive)
[29]
  GI50: > 100 µM (inactive)
[30]
  GI50: > 100 µM (inactive)
[31]
  GI50: > 100 µM (inactive)
[32]
  GI50: > 100 µM (inactive)
[61]
  GI50: > 100 µM (inactive)
[33]
  GI50: > 100 µM (inactive)
[34]
  GI50: > 100 µM (inactive)
[35]
  GI50: > 100 µM (inactive)
[36]
  GI50: > 100 µM (inactive)
[37]
  GI50: > 100 µM (inactive)
[38]
  GI50: > 100 µM (inactive)
[39]
  GI50: > 100 µM (inactive)
[63]
  GI50: > 100 µM (inactive)
[41]
  GI50: > 100 µM (inactive)
[42]
  GI50: > 100 µM (inactive)
[64]
  GI50: > 100 µM (inactive)
[43]
  GI50: > 100 µM
[44]
  GI50: > 100 µM (inactive)
[45]
  GI50: > 100 µM (inactive)
[46]
  GI50: > 100 µM (inactive)
[65]
  GI50: > 100 µM (inactive)
[47]
  GI50: > 100 µM (inactive)
[66]
  GI50: > 100 µM (inactive)
[67]
  GI50: > 100 µM (inactive)
[48]
  GI50: > 100 µM (inactive)
